Results: US20240376099A1, “COMPOUNDS AND COMPOSITIONS AS INHIBITORS OF ENDOSOMAL TOLL-LIKE RECEPTORS” (Novartis AG, priority 2016, published 2024)

Columns and labels:
Assay type in all cases: cell-based
[1] = molecular target: T1, TLR7 (Homo sapiens, UniProt Q9NYK1); assay: huPBMC TLR7 Antagonist IFNα Assay; details: human PBMCs stimulated with ssRNA40 10 μg/mL (DOTAP), 14-16 hrs; IFNα2b AlphaLISA read-out
T1 construct: Fresh blood was collected from normal human donors; endogenous in cells; host or cells: human PBMCs from fresh donor blood
T1 sequence (Q9NYK1 27-1049): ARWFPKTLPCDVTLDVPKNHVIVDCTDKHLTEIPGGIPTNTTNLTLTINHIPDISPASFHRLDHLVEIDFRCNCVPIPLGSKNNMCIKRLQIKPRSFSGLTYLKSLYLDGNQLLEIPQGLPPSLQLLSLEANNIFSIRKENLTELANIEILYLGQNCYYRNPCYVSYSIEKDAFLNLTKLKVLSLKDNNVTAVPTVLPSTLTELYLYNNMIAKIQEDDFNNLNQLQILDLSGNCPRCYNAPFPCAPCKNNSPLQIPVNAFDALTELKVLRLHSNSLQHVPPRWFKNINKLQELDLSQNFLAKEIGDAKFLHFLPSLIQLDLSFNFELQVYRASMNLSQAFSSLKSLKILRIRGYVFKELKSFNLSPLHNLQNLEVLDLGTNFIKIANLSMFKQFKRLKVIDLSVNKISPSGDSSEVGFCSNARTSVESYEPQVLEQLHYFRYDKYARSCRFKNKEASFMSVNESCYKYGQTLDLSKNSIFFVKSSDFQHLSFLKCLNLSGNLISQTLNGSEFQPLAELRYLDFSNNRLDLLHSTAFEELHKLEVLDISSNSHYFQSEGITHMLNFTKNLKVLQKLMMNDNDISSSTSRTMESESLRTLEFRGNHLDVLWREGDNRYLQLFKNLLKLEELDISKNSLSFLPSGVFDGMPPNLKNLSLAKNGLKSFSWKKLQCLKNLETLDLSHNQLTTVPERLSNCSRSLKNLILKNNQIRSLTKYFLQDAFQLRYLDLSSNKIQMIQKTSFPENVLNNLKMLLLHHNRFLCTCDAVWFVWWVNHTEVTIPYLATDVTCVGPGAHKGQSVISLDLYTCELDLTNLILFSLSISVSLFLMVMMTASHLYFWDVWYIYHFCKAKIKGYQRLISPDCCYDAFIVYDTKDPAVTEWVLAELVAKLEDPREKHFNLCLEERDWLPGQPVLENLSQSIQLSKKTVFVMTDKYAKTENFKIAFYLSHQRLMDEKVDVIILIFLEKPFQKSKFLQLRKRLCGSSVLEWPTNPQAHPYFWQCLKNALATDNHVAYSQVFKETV
Procedure: (§1) Compounds were generally serially diluted (1/3) in DMSO and plated on sterile 384 well tissue culture plates and stored until ready for use. Each ten-point dilution was typically plated in triplicate in parallel rows.
(§2) Fresh blood was collected from normal human donors underwritten informed consent in heparinized syringes on the morning of the assay. The blood was diluted in RPMI-1640 medium and the white blood cells were separated from red blood cells by centrifugation (800 g 15′ 0 acceleration, 0 brake) on a Ficoll cushion. Peripheral blood mononuclear cells (PBMCs) were separated from platelets by a series of low-speed centrifugations (1000RPM 10′) in PBS+5% HI—FBS and 1 mM EDTA. Purified PBMCs were re-suspended in assay medium (RPMI-1640 w Glutamax (Invitrogen) supplemented with 5% HI—FBS, 10 mM HEPES, 50 uM β-mercaptoethanol, and 100 mG/L penicillin/streptomycin cocktail). Viable PBMCs were counted on a hemacytometer and kept on ice until ready for plating.
(§3) A 4× concentration (4 ug/ml or 40 ug/ml for TLR8 or TLR7 assays, respectively) of the TLR7/8 agonist ssRNA40 (IDT) was complexed with 10% DOTAP (Roche) in assay medium for 30 min prior to addition to the PBMC suspension (5 million cells/ml). After addition, the final concentration of ssRNA40 in the TLR7/8 stimulated PBMC suspension was 1 μg/ml for TLR8 assay, and 10 μg/mL for the TLR7 assay. The final DOTAP concentration was 2.5%. Diluted PBMCs (5 million cells/ml) were treated with 4×TLR9 agonist ODN2216 (Invivogen). Final concentration of ODN2216 in TLR9 stimulated PBMC suspension was 0.3 μM.
(§4) Agonist stimulated PBMCs were plated on the compound treated 384 well plates at 150,000 cells/well. Un-stimulated PBMCs were plated as controls on each plate. Plating volume was 40 μL per well. DMSO concentration in each well was 0.25%.
(§5) A separate plate, without compounds, with titrations of ssRNA40 and ODN2216 was included in every assay to measure agonist response of each donor's PBMC prep. Assay plates were placed in a tissue culture incubator (37° C., 5% CO2) for 14-16 hrs. After this incubation, the plates were centrifuged and stored at −20° C. until they were assayed.
(§6) IL-6 TR-FRET Assay for TLR8 activity: • 1) Cisbio Human IL-6 kit, 20,000 tests (62TNFPEC), and GNF High-Base TC 384 well plates (cat #789163G) were used; • 2) the Anti-TIL-6 Cryptate conjugate and the Anti-IL-6 XL665 conjugate were diluted 1:20 in Reconstitution Buffer; • 3) a 1:1 mixture of 3 μl/well Anti-IL-6 Cryptate conjugate and 3 μl/well Anti-IL-6 XL665 conjugate was prepared; • 4) 6 μl/well HTRF dilution mastermix was added to 6 μl of transferred supernatant samples in proxiplates; • 5) The plates were incubated for 3 hrs at rt in the dark; and • 6) the levels of IL-6 production was measured using an Envision plate reader (665 nm (emmission)/590 nm (excitation)) with HTRF settings and ratiometric read-out: (XL665 emission/Eu Cryptate emission)×10,000. IFNα2b AlphaLISA Assay for TLR7 or TLR9 activity After thawing the assay plates, 6 μL of supernatant samples were transferred to a low-volume AlphaPlate 384SW (Perkin-Elmer). The concentration of IFNα in supernatants was measured using the IFNα2b AlphaLISA Assay (Perkin-Elmer: AL297F). 3 μL of IFNα acceptor beads/biotinylated antibody solution was added first, using laboratory automation. After an hour incubation, […] of streptavidin […] bead solution was added. The plates containing this mixture were incubated in the dark for an hour and read on an appropriate plate reader at reading parameters set by the manufacturer. (Envision, EnSpire: Perkin-Elmer).

[2] = molecular target: T2, TLR9 (Homo sapiens, UniProt Q9NR96); assay: huPBMC TLR9 Antagonist IFNα Assay; details: human PBMCs stimulated with ODN2216 0.3 μM, 14-16 hrs; IFNα2b AlphaLISA read-out
T2 construct: Fresh blood was collected from normal human donors; endogenous in cells; host or cells: human PBMCs from fresh donor blood
T2 sequence (Q9NR96 26-1032): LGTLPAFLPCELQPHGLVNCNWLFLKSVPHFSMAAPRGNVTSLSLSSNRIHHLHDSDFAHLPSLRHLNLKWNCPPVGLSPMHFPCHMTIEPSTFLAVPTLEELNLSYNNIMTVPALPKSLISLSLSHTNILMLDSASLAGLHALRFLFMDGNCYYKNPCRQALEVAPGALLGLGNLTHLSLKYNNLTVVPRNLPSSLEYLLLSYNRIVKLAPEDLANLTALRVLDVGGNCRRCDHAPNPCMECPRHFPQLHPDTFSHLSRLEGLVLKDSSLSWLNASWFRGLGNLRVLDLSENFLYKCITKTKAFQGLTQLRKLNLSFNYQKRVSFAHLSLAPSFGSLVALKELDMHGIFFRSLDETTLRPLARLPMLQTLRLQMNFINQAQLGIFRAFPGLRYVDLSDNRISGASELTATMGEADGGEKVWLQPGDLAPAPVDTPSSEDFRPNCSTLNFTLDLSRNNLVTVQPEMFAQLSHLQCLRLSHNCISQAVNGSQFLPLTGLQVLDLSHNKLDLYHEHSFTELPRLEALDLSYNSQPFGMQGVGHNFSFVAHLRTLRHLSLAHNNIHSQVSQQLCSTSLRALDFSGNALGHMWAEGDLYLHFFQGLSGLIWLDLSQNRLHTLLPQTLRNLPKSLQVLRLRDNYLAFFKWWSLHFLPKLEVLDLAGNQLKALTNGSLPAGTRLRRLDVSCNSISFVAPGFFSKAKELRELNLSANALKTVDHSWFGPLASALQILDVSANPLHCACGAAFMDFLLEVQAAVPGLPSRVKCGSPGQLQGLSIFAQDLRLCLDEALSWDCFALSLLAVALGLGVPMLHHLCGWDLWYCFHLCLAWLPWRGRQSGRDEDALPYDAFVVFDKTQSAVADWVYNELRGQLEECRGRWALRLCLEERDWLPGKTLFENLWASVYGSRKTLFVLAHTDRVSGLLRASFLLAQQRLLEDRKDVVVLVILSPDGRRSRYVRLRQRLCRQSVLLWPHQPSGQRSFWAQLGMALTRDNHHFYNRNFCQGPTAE
Procedure: as §1, §2, §3, §4, §5, §6

[3] = molecular target: T3, TLR8 (Homo sapiens, UniProt Q9NR97); assay: huPBMC TLR8 Antagonist IL-6 TR-FRET Assay; parameters: Fresh blood was collected from normal human donors; endogenous in cells; host or cells: human PBMCs from fresh donor blood; details: human PBMCs stimulated with ssRNA40 1 μg/ml (DOTAP), 14-16 hrs; IL-6 TR-FRET read-out
T3 sequence (Q9NR97 27-1041): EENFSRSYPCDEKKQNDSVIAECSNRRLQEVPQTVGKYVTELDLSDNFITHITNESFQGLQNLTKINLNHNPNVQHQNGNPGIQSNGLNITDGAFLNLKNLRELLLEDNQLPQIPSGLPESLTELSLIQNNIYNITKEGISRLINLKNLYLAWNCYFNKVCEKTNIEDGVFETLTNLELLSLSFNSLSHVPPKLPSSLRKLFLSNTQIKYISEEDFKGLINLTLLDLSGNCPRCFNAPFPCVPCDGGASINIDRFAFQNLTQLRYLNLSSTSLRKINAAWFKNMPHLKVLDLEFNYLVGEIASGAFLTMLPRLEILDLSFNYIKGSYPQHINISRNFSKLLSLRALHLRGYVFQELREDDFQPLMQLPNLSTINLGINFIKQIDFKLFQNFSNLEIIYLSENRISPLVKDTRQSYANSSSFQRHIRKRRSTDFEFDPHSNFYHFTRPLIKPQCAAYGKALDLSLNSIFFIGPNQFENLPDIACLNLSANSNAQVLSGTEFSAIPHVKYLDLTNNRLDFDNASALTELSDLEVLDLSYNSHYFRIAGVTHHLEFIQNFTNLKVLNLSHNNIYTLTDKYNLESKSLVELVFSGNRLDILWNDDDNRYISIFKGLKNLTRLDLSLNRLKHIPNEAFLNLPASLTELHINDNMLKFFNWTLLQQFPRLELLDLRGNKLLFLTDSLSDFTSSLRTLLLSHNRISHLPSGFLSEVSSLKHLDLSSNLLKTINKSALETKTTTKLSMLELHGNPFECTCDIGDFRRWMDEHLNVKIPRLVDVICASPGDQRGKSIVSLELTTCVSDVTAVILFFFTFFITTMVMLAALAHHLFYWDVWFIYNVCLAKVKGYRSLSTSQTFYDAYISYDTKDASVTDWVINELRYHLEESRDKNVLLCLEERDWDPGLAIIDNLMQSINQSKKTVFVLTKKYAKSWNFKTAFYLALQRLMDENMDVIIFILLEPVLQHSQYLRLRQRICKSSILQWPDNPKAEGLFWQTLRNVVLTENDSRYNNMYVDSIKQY
Procedure, shortened: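 Human PBMCs from fresh donor blood (150,000 cells/well) stimulated 14–16 h at 37 °C with DOTAP-complexed ssRNA40 (final 1 μg/ml for TLR8, 10 μg/mL for TLR7) or ODN2216 (final 0.3 μM, TLR9), 0.25% DMSO, ten-point 1/3 compound dilutions. Supernatant IL-6 read by HTRF (TLR8); IFNα by IFNα2b AlphaLISA (TLR7/TLR9).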

Row | IC50 [1] | IC50 [2] | IC50 [3] | SMILES
1 | 4 nM | > 10 µM | – | CC(=O)NC12CCC(Cn3nc(C)c4c3CCN(c3cc(C)nc5c3cnn5C)C4)(CC1)CC2 [compound 47, N-(4-((5-(1,6-dimethyl-1H-pyrazolo[3,4-b]pyridin-4-yl)-3-methyl-4,5,6,7-tetrahydro-1H-pyrazolo[4,3-c]pyridin-1-yl)methyl)bicyclo[2.2.2]octan-1-yl)acetamide]
2 | 61 nM | – | > 10 µM | CCn1ncc2c(N3CCc4c(c(C)nn4CC45CCC(NC(=O)OC(C)(C)C)(CC4)CC5)C3)cc(C)nc21 [compound 145, tert-butyl (4-((5-(1-ethyl-6-methyl-1H-pyrazolo[3,4-b]pyridin-4-yl)-3-methyl-4,5,6,7-tetrahydro-1H-pyrazolo[4,3-c]pyridin-1-yl)methyl)bicyclo[2.2.2]octan-1-yl)carbamate]
